Measured values: BindingDB's records for patent US10800778 (Entasis Therapeutics Limited, 2020)

Assays:
[1] = molecular target: Beta-lactamase TEM (Escherichia coli, UniProt P62593); experiment: Inhibition of Beta-Lactamase Enzymes
Experimental: (§1) A buffer consisting of 0.1 M sodium phosphate (pH 7.0), 10 mM NaHCO3, and 0.005% Triton X-100 was used for all enzymes. The chromogenic substrate nitrocefin (SynGene, Bangalore, India) was used at 100 μM. Enzyme activity was monitored by the 490 nm absorbance increase upon nitrocefin hydrolysis. Assays were performed in clear polystyrene 384-well plates (Greiner Bio-One, Monroe, N.C.). Absorbance was measured for 1 hour at 30-s intervals using a Spectramax absorbance plate reader (Molecular Devices, Sunnyvale, Calif.). Measurement of beta-lactamase inhibition by INHIBITOR employed serial 3-fold dilutions of the inhibitor in assay buffer, ranging from 100 μM to 62.7 pM. A background absorbance progress curve for a control lacking enzyme and inhibitor was subtracted from each progress curve.

[2] = molecular target: Beta-lactamase (Klebsiella pneumoniae, UniProt Q6XEC0); experiment: Inhibition of Beta-Lactamase Enzymes
Experimental: as §1

Beta-lactamase TEM, sequence (P62593 whole entry): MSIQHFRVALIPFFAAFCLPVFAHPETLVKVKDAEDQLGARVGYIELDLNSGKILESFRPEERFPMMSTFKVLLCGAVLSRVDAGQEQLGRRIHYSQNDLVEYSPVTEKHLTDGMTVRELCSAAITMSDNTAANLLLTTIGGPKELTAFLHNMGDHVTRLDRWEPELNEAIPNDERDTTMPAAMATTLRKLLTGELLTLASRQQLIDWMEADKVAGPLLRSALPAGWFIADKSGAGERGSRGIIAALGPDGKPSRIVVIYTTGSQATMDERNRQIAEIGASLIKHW
Beta-lactamase, sequence (Q6XEC0 whole entry): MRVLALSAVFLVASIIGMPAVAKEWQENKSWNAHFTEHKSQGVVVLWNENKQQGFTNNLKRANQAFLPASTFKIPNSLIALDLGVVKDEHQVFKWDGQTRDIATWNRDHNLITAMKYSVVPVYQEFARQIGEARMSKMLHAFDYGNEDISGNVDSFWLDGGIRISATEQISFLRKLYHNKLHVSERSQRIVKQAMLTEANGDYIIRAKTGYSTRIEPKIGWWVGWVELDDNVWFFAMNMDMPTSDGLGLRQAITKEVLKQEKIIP

SMILES: CC1=C[C@@H]2CN(C(=O)N2O[C@@H](F)C(=O)O)[C@@H]1C(=O)NOC[C@@H]1CCCN1 [US10800778, Example 62]
- IC50 [1]: 210 nM
- IC50 [2]: 870 nM
